Measured values: patent US9790233B2, “Compositions and methods of modulating 15-PGDH activity” (CASE WESTERN RESERVE UNIVERSITY, priority 2012, dated 2017)

Legend:
[1] = system: 15-PGDH-luciferase fusion reporter in V9m, LS174T and V503 cells; assay: 15-PGDH-luciferase fusion gene reporter induction, stated for the three cell line backgrounds together; format: cell-based; settings: V9m, LS174T, V503; FIG. 1
A549 cells [2] = assay: PGE2 levels in the medium of IL1-beta stimulated A549 cells; format: cell-based;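 note: PGE2 in the collected culture medium quantified by enzyme immunoassay (ELISA), with data drawn from three independent experiments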
A549 cells [3] = assay: Cellular toxicity on A549 cells (CellTiter-Glo); format: cell-based; settings: 24 hours; concentrations of up to 10 uM
Hepatocyte stability = format: in vitro ADME
Method: Time to inhibition refers to the time needed to inhibit the generation of NADH by 15-PGDH from the moment with drug is added into the reaction mix. Delta Tm refers to the shift in melting temperature of recombinant 15-PGDH in the presence of drug (with cofactor NADH also present). Concentration of Full Cell Line Reporter Induction refers to the concentration of drug that needs to be added to reporter cell line to achieve maximal induction of the 15-PGDH-luciferase gene fusion reporter cassette, as measured by luciferase assays. Hepatocyte stability refers to the half-life of compound in the presence of hepatocytes in culture. Toxicity refers to the concentration of compound needed to decrease cell numbers in a cell culture assay.

15-PGDH mRNA = 15-PGDH mRNA levels by real-time PCR; format: cell-based
bone marrow = assay: Bone marrow analysis of treated C57BL/6J mice; format: in vivo; settings: IP 5 mg/kg or 20 mg/kg
Text: FIGS. […] Experimental conditions are noted on the figure.

CD45.2 marked marrow = assay: Competitive bone marrow transplant, blood chimerism; format: in vivo, C57BL/6J mice; settings: donors 5 mg/kg IP daily for 3 doses; weeks 12 and 16
Method: On day 3 mice were sacrificed, marrow flushed and mixed at a 1:1 ratio with vehicle treated CD45.1 marrow. 2 million whole BM cells were injected into the tail vein of lethally irradiated CD45.1 mice and percent chimerism measured via flow cytometry at weeks 8, 12, 16.

[4] = Survival after whole body irradiation; format: in vivo, C57BL/6J mice
liver = assay: Liver regeneration after partial hepatectomy; format: in vivo, mice
[5] = Survival following acetaminophen (Tylenol) overdose; format: in vivo, C57BL/6J mice
colon = assay: Dextran sodium sulfate (DSS) induced colitis; format: in vivo, FVB mice

Compound: CCCC[S+]([O-])c1sc2nc(-c3cccs3)cc(-c3ccccc3)c2c1N (stereo not drawn) [SW033291, 2-(butylsulfinyl)-4-phenyl-6-(thiophen-2-yl)thieno[2,3-b]pyridin-3-amine]
- luciferase activity of cells expressing 15-PGDH luciferase fusion construct [1]: increase luciferase activity
- rank of PGE2 level in the medium (A549 cells [2]; 100 nM drug, FIG. 44): next highest level of PGE2
- PGE2 levels in medium (A549 cells [2]; IL1-beta 23 hours, compound added for the last 5 hours): clear inhibition of 15-PGDH activity
- effect on CellTitre-Glo levels (A549 cells [3]): No effect on CellTitre-Glo levels
- Hepatocyte stability (Hepatocyte stability; Table 4): Stable >
- Hepatocyte stability (Hepatocyte stability; half-life in presence of hepatocytes in culture, Table 3): Stable > couple
- 15-PGDH mRNA levels (real-time PCR) (15-PGDH mRNA; V503 cells): slight increase in 15-PGDH mRNA
- 15-PGDH mRNA levels (real-time PCR) (15-PGDH mRNA; treated colon cancer cell lines): do not in general alter 15-PGDH mRNA levels
- percent of SKL cells (bone marrow): unchanged
- percent blood chimerism of CD45.2 marked cells (CD45.2 marked marrow): significantly increased
- number of mice surviving ([4]; 7 Gy, 5 mg/kg IP daily for 7 doses, Day 5): 3
- number of mice surviving ([4]; 7 Gy, Day 6): 3
- number of mice surviving ([4]; 7 Gy, Day 7): 3
- number of mice surviving ([4]; 7 Gy, Day 8): 3
- number of mice surviving ([4]; 7 Gy, Day 9): 3
- number of mice surviving ([4]; 7 Gy, Day 10): 3
- number of mice surviving ([4]; 7 Gy, Day 11): 3
- number of mice surviving ([4]; 7 Gy, Day 12): 3
- number of mice surviving ([4]; 7 Gy, Day 13): 3
- number of mice surviving ([4]; 7 Gy, Day 14): 3
- number of mice surviving ([4]; 7 Gy, Day 15): 3
- appearance of surviving mice ([4]; 7 Gy, Day 25 (cell wraps: Looks / Healthy)): Looks
- number of mice surviving ([4]; 9 Gy, 5 mg/kg IP daily for 7 doses, Day 5): 3
- number of mice surviving ([4]; 9 Gy, Day 6): 3
- number of mice surviving ([4]; 9 Gy, Day 7): 3
- number of mice surviving ([4]; 9 Gy, Day 8): 3
- number of mice surviving ([4]; 9 Gy, Day 9): 3
- number of mice surviving ([4]; 9 Gy, Day 10): 3
- number of mice surviving ([4]; 9 Gy, Day 11): 3
- number of mice surviving ([4]; 9 Gy, Day 12): 2
- number of mice surviving ([4]; 9 Gy, Day 13): 2
- number of mice surviving ([4]; 9 Gy, Day 14): 1
- number of mice surviving ([4]; 9 Gy, Day 15): 0
- number of mice surviving ([4]; 11 Gy, 5 mg/kg 1 dose/daily for 7 days, Day 5): 3
- number of mice surviving ([4]; 11 Gy, 5 mg/kg 1 dose/daily, continuous every day, Day 5): 3
- number of mice surviving ([4]; 11 Gy, 5 mg/kg IP daily for 7 doses, Day 5): 3
- number of mice surviving ([4]; 11 Gy, 5 mg/kg, 7 days, 2 dose daily, Day 5): 3
- number of mice surviving ([4]; 11 Gy, 1 dose/daily for 7 days, Day 6): 3
- number of mice surviving ([4]; 11 Gy, 1 dose/daily for 7 days, Day 7): 3
- number of mice surviving ([4]; 11 Gy, 1 dose/daily for 7 days, Day 8): 2
- number of mice surviving ([4]; 11 Gy, 1 dose/daily for 7 days, Day 9): 1
- number of mice surviving ([4]; 11 Gy, 1 dose/daily for 7 days, Day 10): 0
- number of mice surviving ([4]; 11 Gy, 1 dose/daily, continuous every day, Day 6): 3
- number of mice surviving ([4]; 11 Gy, 1 dose/daily, continuous every day, Day 7): 3
- number of mice surviving ([4]; 11 Gy, 1 dose/daily, continuous every day, Day 8): 3
- number of mice surviving ([4]; 11 Gy, 1 dose/daily, continuous every day, Day 9): 2
- number of mice surviving ([4]; 11 Gy, 1 dose/daily, continuous every day, Day 10): 0
- number of mice surviving ([4]; 11 Gy, 7 days, 2 dose daily, Day 6): 3
- number of mice surviving ([4]; 11 Gy, 7 days, 2 dose daily, Day 7): 3
- number of mice surviving ([4]; 11 Gy, 7 days, 2 dose daily, Day 8): 3
- number of mice surviving ([4]; 11 Gy, 7 days, 2 dose daily, Day 9): 2
- number of mice surviving ([4]; 11 Gy, 7 days, 2 dose daily, Day 10): 0
- number of mice surviving ([4]; 11 Gy, Table 7, Day 6): 3
- number of mice surviving ([4]; 11 Gy, Table 7, Day 7): 3
- number of mice surviving ([4]; 11 Gy, Table 7, Day 8): 3
- number of mice surviving ([4]; 11 Gy, Table 7, Day 9): 2
- number of mice surviving ([4]; 11 Gy, Table 7, Day 10): 0
- longer survival than vehicle control, on average ([4]; 11 Gy, any of the dosing schedules): 1 to 2 days
- serum ALT levels (liver; 5 mg/kg IP bid, one mouse versus one control mouse): ALT values are lower
- hepatic mitosis versus controls (liver; days 3 and 4): significantly increased hepatic mitosis
- BrdU positive (S-phase) cells in liver (liver; post-operative day 2): clear increase in numbers of BrdU positive cells
- number of mice surviving ([5]; 1 dose/daily, first dose immediately after Tylenol, 24 hrs): 6
- number of mice surviving ([5]; 2 dose/daily, first dose immediately after Tylenol, 24 hrs): 6
- number of mice surviving ([5]; 2 dose/daily, first dose immediately after Tylenol, 48 hrs): 3
- number of mice surviving ([5]; 2 dose/daily, first dose immediately after Tylenol, 64 hrs): 3
- number of mice surviving ([5]; 2 dose/daily, first dose immediately after Tylenol, 72 hrs): 3
- number of mice surviving ([5]; 2 dose/daily, first dose immediately after Tylenol, 88 hr): 3
- number of mice surviving ([5]; 2 dose/daily, first dose immediately after Tylenol, 96 hr): 3
- number of mice surviving ([5]; 2 dose/daily, first dose immediately after Tylenol, 112 hr): 3
- number of mice surviving ([5]; 2 dose/daily, first dose immediately after Tylenol, 120 hr): 3
- number of mice surviving ([5]; acetaminophen 600 mg/kg, 5 mg/kg 1 dose/daily, first dose immediately after Tylenol injection, 16 hr): 6
- number of mice surviving ([5]; acetaminophen 600 mg/kg, 5 mg/kg 2 dose/daily, first dose immediately after Tylenol injection, 16 hr): 6
- Survival (number of mice) ([5]; acetaminophen 600 mg/kg, 5 mg/kg bid beginning 3 hours prior to acetaminophen, 6 doses, cohort of 6, 16 hr): 6
- Survival (number of mice) ([5]; acetaminophen 600 mg/kg, 5 mg/kg bid beginning 48 hours prior to acetaminophen, 9 doses, cohort of 12, 16 hr): 12
- mice survived at 120 hours ([5]; bid beginning 3 hours prior to acetaminophen): 3 of 6
- Survival (number of mice) ([5]; bid beginning 3 hours prior to acetaminophen, 24 hrs): 5
- Survival (number of mice) ([5]; bid beginning 3 hours prior to acetaminophen, 48 hrs): 3
- Survival (number of mice) ([5]; bid beginning 3 hours prior to acetaminophen, 64 hrs): 3
- Survival (number of mice) ([5]; bid beginning 3 hours prior to acetaminophen, 72 hrs): 3
- Survival (number of mice) ([5]; bid beginning 3 hours prior to acetaminophen, 88 hr): 3
- Survival (number of mice) ([5]; bid beginning 3 hours prior to acetaminophen, 96 hr): 3
- Survival (number of mice) ([5]; bid beginning 3 hours prior to acetaminophen, 112 hr): 3
- Survival (number of mice) ([5]; bid beginning 3 hours prior to acetaminophen, 120 hr): 3
- mice survived at 120 hours ([5]; bid beginning 48 hours prior to acetaminophen): 10 of 12
- Survival (number of mice) ([5]; bid beginning 48 hours prior to acetaminophen, 24 hrs): 12
- Survival (number of mice) ([5]; bid beginning 48 hours prior to acetaminophen, 40 hrs): 11
- Survival (number of mice) ([5]; bid beginning 48 hours prior to acetaminophen, 48 hrs): 10
- Survival (number of mice) ([5]; bid beginning 48 hours prior to acetaminophen, 64 hrs): 10
- Survival (number of mice) ([5]; bid beginning 48 hours prior to acetaminophen, 72 hrs): 10
- Survival (number of mice) ([5]; bid beginning 48 hours prior to acetaminophen, 88 hr): 10
- Survival (number of mice) ([5]; bid beginning 48 hours prior to acetaminophen, 96 hr): 10
- Survival (number of mice) ([5]; bid beginning 48 hours prior to acetaminophen, 112 hr): 10
- Survival (number of mice) ([5]; bid beginning 48 hours prior to acetaminophen, 120 hr): 10
- survival versus control mice ([5]; dosing begun immediately following acetaminophen, once or twice daily): No difference
- change from baseline weight versus control (colon; 22 days): greater weight at all time points
- ulcer formation prevented (colon; colonoscopy days 8, 11, 15): two-thirds
- reduction of length of ulcerated mucosa (colon; day 15): 61%
- body weight and colon length versus control (colon; day 22): greater body weight and greater colon lengths
- MEICS scores versus control (colon; days 8, 11 and 15): significantly less colitis activity
